Experimental data taken from patent US8377651B2, “Method for detecting Escherichia coli” (Systagenix Wound Management (US), Inc., priority 2003, dated 2013).
Primed or numbered codes have the meaning given here. No end group written: not given here. *: point of attachment. Dabcyl″ = CN(C)c1ccc(/N=N/c2ccc(C(=O)*)cc2)cc1; EDANS = O=S(=O)(O)c1cccc2c(NCCN*)cccc12; Dabcyl′ = not defined here

Legend:
E. coli cultures = experiment: Biosensor: his-tagged peptide linked to nickel binding resin exposed to cultures; assay type: cell-based, Escherichia coli; conditions: E. coli cultures versus BHI media without bacteria
Description: Metal chelate (affinity binding) interactions can provide a stronger bond to biological molecules. A his-tag built into the peptide substrate, for example T4 can be used to allow linkage to a nickel binding resin. The resin is incubated with a suitable culture, for example, E. coli for 30 minutes at 37° C. After centrifugation the buffer is removed and the pelleted resin is imaged. The fluorescence produced by the peptide is then detected.

E. coli cells [1] = experiment: Protease assay, labeled peptide substrate with bacterial culture (cells and media); assay type: cell-based, Escherichia coli; conditions: for protease activity / cleavage of substrate (relative fluorescence): E. coli culture incl. cells and media, 20 mM tris pH 7.4, 150 mM NaCl, 37° C., ex 355 nm, em 485 nm, FIG. 1, 2
Description: (§1) The peptide substrates used here were labeled with the fluorescent probe edans (5((2-aminoethyl)amino)naphthalene-1-sulfonic acid) and the quencher dye molecule dabcyl ((4-(4-(dimethylamino)phenyl)azo)benzoic acid). The labeled peptides ecot1 (T1) and ecot2 (T2) sequences used are as follows:
(§2) The bacteria were grown in an incubator overnight at 37° C. in 5 mL BHT (Brain Heart Infusion) media. Each of the resulting cultures was split into two samples. One was used as a culture, and the other was spun down by centrifugation and the supernatant was collected. The assays were run in 20 mM tris buffer (pH 7.4) with 150 mM NaCl added. The reaction was carried out with 5 μL of culture or supernatant and 5 μL of peptide substrate (10 mg/mL in water) in 100 μL total volume at 37° C. The reaction was followed on a fluorimetric plate reader using an excitation wavelength of 355 nm and an emission wavelength of 485 nm.
(§3) The first set of experiments was performed by addition of the bacterial culture directly into the assay solution. The protease OmpT is a membrane bound protein and would not be expected to be found secreted into the media. The first assay to be run used the peptide ecot1(T1) as substrate.

E. coli [2] = experiment: Protease assay in reaction buffer with 5% fetal bovine serum; assay type: cell-based, Escherichia coli; conditions: buffer plus 5% fetal bovine serum; FIG. 3
Description: as §2
The 12 peptide substrate was further tested for cross reactivity with the types of conditions and molecules that may be present in a wound environment. A fluid that may be present in a wound, at least initially, is serum. In order to test for reactivity with serum the reaction buffer was modified to by addition 5% fetal bovine serum and the protease assay was repeated, using the 12 peptide substrate.

E. coli cells [3] = experiment: Protease assay in simulated wound fluid buffer (5% bovine serum albumin); assay type: cell-based, Escherichia coli; conditions: tris-buffered saline plus 5% (by weight) bovine serum albumin, FIG. 4
Description: as §2
The protease assay was also tested in a simulated wound fluid buffer. The buffer was tris-buffered saline, as described above, to which 5% (by weight) bovine serum albumin was added. The protease assay was repeated, again using the 12 peptide substrate.

[4] = tested on: secreted protease from any of the other bacteria tested; experiment: Protease assay with bacterial culture supernatants; assay type: biochemical
Description: as §2
(§4) To test whether the protease is membrane associated, as expected for E. coli OmpT, the protease assays were repeated with the supernatants obtained from each bacterial culture.

[5] = tested on: secreted protease from E. coli; experiment: Protease assay with bacterial culture supernatants; assay type: biochemical, Escherichia coli; conditions: for protease activity with culture supernatant: E. coli culture supernatant
Description: as §2, §4

[6] = tested on: protease from Pseudomonas secreted into solution; experiment: Protease assay with bacterial culture supernatants; assay type: biochemical
Description: as §2, §4

Pseudomonas = experiment: Protease assay, labeled peptide substrate with bacterial culture (cells and media); assay type: cell-based; conditions: Pseudomonas culture incl. cells and media; 20 mM tris pH 7.4, 150 mM NaCl, 37° C.; FIG. 1
Description: as §1, §2, §3

E. coli [7] = experiment: Protease assay with modified (lysine-tagged) substrate and bacterial cultures; assay type: cell-based, Escherichia coli; conditions: cultures of Pseudomonas, S. aureus, S. epidermidis, S. salivarius, S. pyogenes, Enterococcus, Serratia, 37° C., FIG. 5
Description: The protease assay, described herein for detection of E. colt was run with the modified version of T2, T3. Bacteria (Pseudomonas, E. coli, S. aureus, S. epidermidis, S. salivarius, S. pyogenes, Enterococcus, and Serratia) were grown in an incubator overnight at 37° C. in 5 mL BHI (Brain Heart Infusion) media. The assays were run in 20 mM tris buffer (pH 7.4) with 150 mM NaCl added. The reaction was carried out with 7 μL of culture including cells and media and […] (5 mg/mT, in water) in 100 μL total volume at 37° C. The reaction was followed on a fluorimetric plate reader using an excitation wavelength of 355 nm and an emission wavelength of 485 nm.

CHHHAS(E-edans)VSRRRRRGG(K-dabcyl) [T4]
detection of E. coli by resin-bound peptide fluorescence (E. coli cultures): E. coli was detected

Dabcyl - KVSRRRRRGGD - Edans [T2]
protease activity / cleavage of substrate (relative fluorescence) (E. coli cells [1]): reacted with this substrate
selectivity of substrate among the bacteria tested (E. coli cells [1]; cultures of various bacteria incl. cells and media, FIG. 2): efficient and selective for E. coli
detection of E. coli in presence of serum (cleavage, relative fluorescence) (E. coli [2]): detection of the presence of E. coli in the E. coli sample occurred
protease reactivity in simulated wound fluid (E. coli cells [3]): not affected by the simulated wound fluid buffer
selectivity and speed as probe in simulated wound fluid (E. coli cells [3]; various bacteria): rapid and selective probe for the detection of E. coli cells
reactivity with secreted protease, culture supernatants [4]: did not show any reactivity
protease activity with culture supernatant [5]: did not show any reactivity
selectivity for membrane bound protease OmpT ([5]; conclusion from culture versus supernatant assays): selective for the E. coli outer membrane protease OmpT

Edans - DSRPVRRRRRPRVSK - Dabcyl (Edans-DSRPVRRRRRPRVSK-{Dabcyl′}) [T1]
protease activity / cleavage of substrate (relative fluorescence) (E. coli cells [1]): protease activity was observed
protease activity with culture supernatant [6]: still present
protease activity with culture supernatant [5]: not present in the supernatant
protease activity / cleavage of substrate (relative fluorescence) (Pseudomonas): protease activity was observed

KKAS(E-edans)VSRRRRRGG(K-dabcyl) (chain 1 KKASE(EDANS); chain 2 VSRRRRRGGK(Dabcyl″); not fully specified; printed as KKAS(E-edans)VSRRRRRGG(K-dabcyl)) [T3]
specificity of assay among bacteria (cleavage, relative fluorescence over time) (E. coli [7]): specific for E. coli
